# Experimental data reported in doi:10.1101/2024.08.25.609621 (bioRxiv, 2024).
# Values joined by “and” are separate entries in the source; they are usually repeats but may differ in a detail not shown here. Equal values may be shown once. Read-outs that look alike come from different tables or passages of the source.
# Tests used:
# [1] = molecular target: SARS-CoV-2 NSP3 macrodomain (Mac1), P43 crystal form (Severe acute respiratory syndrome coronavirus 2, UniProt P0DTD1); format: binding; details: for 1-BDC: PanDDA background density correction; for Total number of conformations: ligand conformations modeled in Mac1 crystal structure; for X-ray crystallography: Binding site: site where the ligand is bound in the X-ray crystal structure
# human macrodomain Targ1 = molecular target: T1, human macrodomain Targ1 (Homo sapiens, UniProt Q9Y530); assay: HTRF peptide displacement assay, Targ1; format: binding
# T1 sequence (Q9Y530 with tags, fused parts or gaps): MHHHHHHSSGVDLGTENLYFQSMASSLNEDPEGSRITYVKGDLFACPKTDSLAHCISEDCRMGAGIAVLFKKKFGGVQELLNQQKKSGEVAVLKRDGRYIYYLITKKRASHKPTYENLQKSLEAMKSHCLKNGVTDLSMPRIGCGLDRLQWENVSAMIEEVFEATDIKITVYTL
# Microsomal stability = format: in vitro ADME, mouse; details: for microsomal CLint at 1 µM / half-life at 1 µM: pH 7.4
# Description: The assay was carried out in 96-well plates at 37°C. Reaction mixtures (25 μl) contained a final concentration of 1 μM compound, 0.5 mg/ml liver microsomes protein, and 1 mM NADPH and/or 1 mM UDPGA (with alamethicin) in 100 mM potassium phosphate (pH 7.4) with 3 mM MgCl2. After 0, 15, 30, and 60 minutes, 150 μl of quench solution (100% acetonitrile with 0.1% formic acid) with internal standard was transferred to each well. Reactions containing the same components except the NADPH were prepared as the negative control. Plates were sealed, vortexed, and centrifuged at 4°C for 15 minutes at 4000 rpm.
# The extent of metabolism was calculated as the disappearance of compounds, compared to the 0-min time incubation.
# Kinetic solubility = details: pH 7.4, aqueous buffer, kinetic from dmso stock
# Caco-2 cells = assay: in vitro
# Description: (§1) Caco-2 cell plates were obtained commercially and were maintained for 21 days at 37°C with 5% CO2. Cells were washed with Hank’s Balanced Salt Solution (HBSS) with 5 mM HEPES for 30 minutes before starting the experiment. Test compound solutions are prepared by diluting DMSO stock into HBSS buffer, resulting in a final DMSO concentration of 0.1%. Prior to the assay, cell monolayer integrity was verified by […] electrical resistance (TEER) to ensure that wells have resistance above the acceptance cut-off (1 kΩ). Transport experiments were initiated by adding test compounds to the apical (75 μl) or basal (250 μl) side. Transport plates were incubated at 37°C in a humidified incubator with 5% CO2. Samples were taken from the donor and acceptor compartments after one hour and analyzed by liquid chromatography with tandem mass spectrometry (LC/MS/MS) using an AB Sciex API 4000 instrument, coupled to a Shimadzu LC-20AD LC Pump system. Samples were separated using a Waters Atlantis T3 dC18 reverse phase HPLC column (20 mm × 2.1 mm) at a flow rate of 0.5 ml/min. The mobile phase consisted of 0.1% formic acid in acetonitrile (solvent A) and 0.1% formic acid in water (solvent B).
# (§2) Apparent permeability (Papp) values were calculated using the following equation: Papp=(dQ/dt)/A/C0 where dQ/dt is the initial rate of compound transport across the cell monolayer, A is the surface area of the filter membrane, and C0 is the initial concentration of the test compound, calculated for each direction using a four-point calibration curve by LC/MS/MS.
# (§3) Net flux ratio between the two directional transports was calculated by the following equation: Ratio=PappB-A/PappA-B where PappB-A and PappA-B represent the apparent permeability of compounds from the basal-to-apical and apical-to-basal side of the cellular monolayer, respectively. Recovery was calculated based on the compound concentration at the end of the experiment, compared to that at the beginning of the experiment, adjusted for volumes.
# in vitro = details: human; for Papp A→B at 1 h / Papp B→A at 1 h: Caco-2
# Description: as §1, §2, §3
# [2] = molecular target: SARS-CoV-2 NSP3 macrodomain (Mac1) (Severe acute respiratory syndrome coronavirus 2, UniProt P0DTD1); assay: biochemical; format: binding; details: for Hill slope: HTRF dose-response fit, Mac1; for SARS CoV-2 macrodomain HTRF assay: Hillslope: dose-response fit
# [3] = molecular target: T2, human macrodomain MacroD2 (Homo sapiens, UniProt A1Z1Q3); assay: HTRF peptide displacement assay, MacroD2; format: binding
# T2 sequence (A1Z1Q3 with tags, fused parts or gaps): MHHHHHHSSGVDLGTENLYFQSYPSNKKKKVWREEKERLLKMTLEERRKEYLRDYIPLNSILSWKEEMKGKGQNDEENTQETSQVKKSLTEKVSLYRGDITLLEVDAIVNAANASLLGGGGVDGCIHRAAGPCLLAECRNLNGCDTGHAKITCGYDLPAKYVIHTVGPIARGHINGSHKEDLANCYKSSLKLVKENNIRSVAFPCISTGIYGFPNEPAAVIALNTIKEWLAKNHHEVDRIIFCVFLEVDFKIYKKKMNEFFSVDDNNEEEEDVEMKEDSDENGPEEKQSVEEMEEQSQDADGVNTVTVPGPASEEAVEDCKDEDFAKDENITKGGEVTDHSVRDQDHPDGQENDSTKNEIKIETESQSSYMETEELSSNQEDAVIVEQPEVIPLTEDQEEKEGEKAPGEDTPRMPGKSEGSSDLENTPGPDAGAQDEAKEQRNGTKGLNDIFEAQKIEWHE
# [4] = dose-response, read-out: Human Targ1 HTRF assay: IC50
# [5] = liver microsomes, mouse microsomes, read-out: CLint (mouse) (µl/min/mg protein), mean
# [6] = Caco-2, Caco-2 ratio B-A/A-B, net flux ratio
# [7] = dose-response, read-out: Human MacroD2 HTRF assay: IC50
# [8] = mouse, microsomes, 1 μM compound, 0.5 mg/ml microsomal protein, read-out: Mouse microsome T1/2
# [9] = Caco-2, compound concentration 5
# [10] = mouse microsomes, read-out: CLint (mouse)
# [11] = crystal soak concentration 10 mM, event 1
# [12] = crystal soak concentration 10 mM, P43 crystals
# [13] = crystal soak concentration 10 mM
# [14] = crystal soak concentration 20 mM, P43 crystals
smiles,measurement,setting,value
"CC(C)(O)[C@H]1CCCN1c1ncnc2[nH]ccc12 [AVI-607, 2-[(2R)-1-{7H-Pyrrolo[2,3-d]pyrimidin-4-yl}pyrrolidin-2-yl]propan-2-ol]",1-BDC,[1],0.44
same,"Pandda run, overall: Modeling comment","[1]; crystal soak, soak concentration 10 mM","High occupancy, use manual refinement"
same,"Pandda run, overall: Hit","[1]; crystal soak, soak concentration 10 mM, TRUE = ligand hit",TRUE
same,Total number of conformations,[1],1
same,2*(1-BDC) (%),[1]; occupancy estimate from PanDDA 1-BDC,88%
same,X-ray crystallography: Binding site,[1],Adenosine
same,"PanDDA run, DMSO background map: 1-BDC",[1]; soak concentration 10 mM,0.42 and 0.44
same,"PanDDA run, DMSO background map: Hit",[1]; soak concentration 10 mM,TRUE
same,IC50,human macrodomain Targ1; [4],> 1000 µM
same,binding to the human macrodomain Targ1,human macrodomain Targ1; in words,none
same,microsomal CLint at 1 µM,Microsomal stability; [5],73 µL/min/mg
same,half-life at 1 µM,"Microsomal stability; mouse, microsomes",19 min
same,microsomal CLint at 1 µM,"Microsomal stability; mouse, microsomes",73 µL/min/mg
same,solubility kinetic at […],Kinetic solubility; phosphate buffered saline,518 µM
same,Recover Rate (%),"Caco-2 cells; human, Caco-2, 1 h",93%
same,Papp A→B at 1 h,in vitro,22 ×10⁻⁶ cm/s
same,Papp B→A at 1 h,in vitro,15.7 ×10⁻⁶ cm/s
same,efflux ratio at 1 h,in vitro; [6],0.7
same,efflux ratio at 1 h,"in vitro; Caco-2, Ratio (B-A/A-B)",0.71
same,Hill slope,[2],1.5
same,inhibition at 200 µM,"[2]; Single dose, concentration 200 μM, read-out: SARS CoV-2 macrodomain HTRF assay: Average % competition",100%
same,SARS CoV-2 macrodomain HTRF assay: Hillslope,[2],1.5
same,inhibition at 200 µM,"[2]; preliminary screen, compound at 200 μM, mean of 3-4 technical replicates, read-out: % competition in HTRF assay",100%
same,IC50,[3]; [7],> 1000 µM
same,binding to the human macrodomain MacroD2,[3]; in words,none
C[C@H]1CCCN(c2ncnc3[nH]ccc23)[C@H]1CO [AVI-3716],IC50,human macrodomain Targ1; [4],> 1000 µM
same,binding to the human macrodomain Targ1,human macrodomain Targ1; in words,none
same,microsomal CLint at 1 µM,Microsomal stability; [5],44.4 µL/min/mg
same,"Mouse microsome stability: T1/2 (min), mean",Microsomal stability; mouse microsomes,31.2 min
same,microsomal CLint at 1 µM,"Microsomal stability; mouse, microsomes",44.4 µL/min/mg
same,half-life at 1 µM,Microsomal stability; [8],31.2 min
same,solubility kinetic at […],Kinetic solubility; phosphate buffered saline,523 µM
same,Recover Rate (%),Caco-2 cells; [9],104%
same,Papp A→B at 1 h,in vitro,25.9 ×10⁻⁶ cm/s
same,Papp B→A at 1 h,in vitro,18.9 ×10⁻⁶ cm/s
same,IC50,[3]; [7],> 1000 µM
same,binding to the human macrodomain MacroD2,[3]; in words,none
"Cc1c[nH]c2ncnc(NCC3(O)CCCCC3)c12 [AVI-3761, 1-(((5-methyl-7H-pyrrolo[2,3-d]pyrimidin-4-yl)amino)methyl)cyclohexan-1-ol]",IC50,human macrodomain Targ1,> 1000 µM
same,binding to the human macrodomain Targ1,human macrodomain Targ1,none
same,"T1/2 (min), mean",Microsomal stability; mouse microsome stability,7.49 min
same,half-life at 1 µM,Microsomal stability; [8],7.49 min
same,microsomal CLint at 1 µM,Microsomal stability; [10],185 µL/min/mg
same,Recover Rate (%),"Caco-2 cells; human, Caco-2, 1 h",86%
same,Papp A→B at 1 h,in vitro,21.5 ×10⁻⁶ cm/s
same,Papp B→A at 1 h,in vitro,11.2 ×10⁻⁶ cm/s
same,IC50,[3],> 1000 µM
same,binding to the human macrodomain MacroD2,[3],none
"O=C1CCCN1Nc1ncnc2[nH]c3cc(F)ccc3c12 [AVI-219, reference compound]",microsomal CLint at 1 µM,"Microsomal stability; liver microsomes, mouse microsome stability, read-out: CLint (mouse) (µl/min/mg protein), mean",53.1 µL/min/mg
same,half-life at 1 µM,"Microsomal stability; liver microsomes, mouse microsome stability, read-out: T1/2 (min), mean",26.1 min
same,microsomal CLint at 1 µM,"Microsomal stability; mouse, microsomes",53.1 µL/min/mg
same,solubility kinetic at […],Kinetic solubility; phosphate buffered saline,127 µM
same,Recover Rate (%),Caco-2 cells; [9],98%
same,Papp A→B at 1 h,in vitro,10.6 ×10⁻⁶ cm/s
same,Papp B→A at 1 h,in vitro,16.8 ×10⁻⁶ cm/s
same,efflux ratio at 1 h,in vitro; [6],1.6
"Nc1ncnc2c1ncn2[C@@H]1O[C@H](COP(=O)(O)OP(=O)(O)OC[C@H]2O[C@@H](O)[C@H](O)[C@@H]2O)[C@@H](O)[C@H]1O.[Na].[Na] [ADP-ribose, reference compound]",Hill slope,"human macrodomain Targ1; HTRF dose-response fit, Targ1",1.5
"CC(C)[C@H](CO)Nc1ncnc2[nH]ccc12 [AVI-1504, (2R)-3-Methyl-2-({7H-pyrrolo[2,3-d]pyrimidin-4-yl}amino)butan-1-ol]","CLint (mouse) (µl/min/mg protein), mean",Microsomal stability; mouse microsome stability,<11.6 µl/min/mg protein
"O=C(Nc1ccc(C(=O)N[C@H]2c3cccc(O)c3C[C@H]2C(=O)O)cc1)NC1CC1 [AVI-92, reference compound]","CLint (mouse) (µl/min/mg protein), mean",Microsomal stability; mouse microsome stability,<11.6 µl/min/mg protein
same,"T1/2 (min), mean",Microsomal stability; mouse microsome stability,>120 min
same,half-life at 1 µM,Microsomal stability; [8],> 120 min
same,microsomal CLint at 1 µM,Microsomal stability; [10],< 11.6 µL/min/mg
same,solubility kinetic at […],Kinetic solubility,524 µM
same,Recover Rate (%),Caco-2 cells; [9],91%
same,Papp A→B at 1 h,in vitro,0.04 ×10⁻⁶ cm/s
same,Papp B→A at 1 h,in vitro,1.7 ×10⁻⁶ cm/s
same,efflux ratio at 1 h,in vitro; [6],40.7
same,efflux ratio at 1 h,"in vitro; Caco-2, Ratio (B-A/A-B), Caco-2, compound concentration 5",42.5
COc1ccc(NC(=O)NC2CCCC2)cc1-n1nnnc1C [AVI-311],"PanDDA run, DMSO background map: 1-BDC",[1]; [11],0.09
same,"Pandda run, overall: Hit",[1]; [12],TRUE
same,"Pandda run, overall: Modeling comment",[1]; [12],"Weak density, not modeled"
same,"PanDDA run, DMSO background map: Hit",[1]; [13],TRUE
same,"PanDDA run, DMSO background map: Hit",[1]; crystal soak concentration 20 mM,TRUE
same,"PanDDA run, DMSO background map: 1-BDC","[1]; crystal soak concentration 20 mM, event 1",0.12
same,"Pandda run, overall: Hit",[1]; [14],TRUE
same,"Pandda run, overall: Modeling comment",[1]; [14],"Weak density, not modeled"
same,Average % competition,"[2]; Single dose, 200 μM, mean of three technical replicates",0%
Cc1c[nH]c2ncnc(NCC3(O)CCC(C)(C)CC3)c12 [AVI-4330],"PanDDA run, DMSO background map: 1-BDC",[1]; [11],0.11
same,"Pandda run, overall: Hit",[1]; [12],TRUE
same,"Pandda run, overall: Modeling comment",[1]; [12],"Weak density, not modeled"
same,"PanDDA run, DMSO background map: Hit",[1]; [13],TRUE
same,Hill slope,[2],1.3
same,SARS CoV-2 macrodomain HTRF assay: Hillslope,[2],1.3
CC1(C)CCN(c2ncnc3[nH]ccc23)C(CO)C1 (centres unmarked) [AVI-5994],Occupancy difference (refined_occupancy - 2*(1-BDC)),[1],0
same,Refined ligand occupancy (%),[1],46%
same,"PanDDA run, DMSO background map: 1-BDC",[1]; event 1,0.23 and 0.27
same,1-BDC,[1],0.23
same,Comment,[1]; comment on ligand modeling / Phe132 loop density,Weak density for open state of Phe132 loop
same,Total number of conformations,[1],2
same,2*(1-BDC) (%),[1]; occupancy estimate from PanDDA BDC,46%
same,X-ray crystallography: Binding site,[1],Adenosine
same,Hill slope,[2],1.2
same,SARS CoV-2 macrodomain HTRF assay: Hillslope,[2],1.2
